In publication PMC4110927 (Virology, 2013):
Several values for one entry are separate records, joined by “and”; a condition that tells them apart may be missing. Equal values may be shown once. Where a SMILES comes first, the peptide text is derived from it. Where no end group is shown, it is not given here.

These molecules were tested against soluble HLA A*0201 or B*0702 (allele not stated for the peptide family) (assay: fluorescence polarisation). Settings: not given.

In the case of Env gp160/120 341-349 […] (peptide), the logIC50 is reported as 4.36.

In the case of Gag p24 143-151 […] (peptide), the logIC50 is reported as 4.34 and 3.92.

These molecules were tested against soluble HLA-A*0201 (Homo sapiens, UniProt P04439, D140Y/D185E/D98H/E176V/E277Q/G131W/G231S/I119V/I121R/I166T/I218V/L300P/L318F/N151K/N90K/P208A/P217A/Q86G/Q94H/R138H/R169H/T345S) (assay: Fluorescence polarization). Settings: not given.
Assay type: binding

Going from `CC(C)C[C@H](NC(=O)[C@H](CCCCN)NC(=O)[C@H](Cc1ccccc1)NC(=O)[C@H](CS)NC(=O)[C@H](Cc1c[nH]c2ccccc12)NC(=O)CNC(=O)[C@H](Cc1ccccc1)NC(=O)[C@@H](NC(=O)[C@H](CC(C)C)NC(=O)[C@@H]1CCCN1)[C@@H](C)O)C(=O)O` to `CC(C)C[C@H](NC(=O)[C@@H](N)[C@@H](C)O)C(=O)N[C@@H](CC(N)=O)C(=O)N[C@@H](C)C(=O)N[C@@H](Cc1c[nH]c2ccccc12)C(=O)N[C@H](C(=O)N[C@@H](CCCCN)C(=O)N[C@H](C(=O)N[C@H](C(=O)O)C(C)C)C(C)C)C(C)C`, the IC50 falls from 3020 µM to 14.5 µM (210-fold). The second is the more potent here.

Compared with ALNAWVKVV, IGPGIAFYAT is 96-fold higher in IC50: 8.51 µM for the first, 813 µM for the second. The first is the more potent here.

Compared with IGPGRAFYAA, IGPGRAFYAT is 14-fold higher in IC50: 30.2 µM for the first, 437 µM for the second. The first is the more potent here.

Compared with IGSGRAFYAT, PITFGWCFKL is 1.6-fold lower in IC50: 3630 µM for the first, 2240 µM for the second. The second is the more potent here.

First: PLNAWVKVV
Second: PLTLGWCFKL
The IC50 of the first is 20-fold lower: 64.6 µM for the first, 1260 µM for the second. The first is the more potent here.

First: PVTFGWCFKL
Second: SLFNTIATL
The IC50 of the first is 360-fold higher: 3020 µM for the first, 8.32 µM for the second.

SLFNTVAAL [SLFNTVAAL] and SLFNTVATL are within 1.5-fold of each other in IC50: 6.92 µM for the first, 6.46 µM for the second.

First: SLFNTVATP
Second: TLDAWVKVV
The IC50 of the first is 8.7-fold higher: 174 µM for the first, 20 µM for the second. The second is the more potent here.

TLSAWVKVV gave an IC50 of 15.1 µM.

The molecules below were run against soluble HLA-B*0702 (Homo sapiens, UniProt P01889) (assay: Fluorescence polarization). Settings: not given.
Assay type: binding

Going from `CC(C)C[C@H](NC(=O)[C@@H]1CCCN1C(=O)[C@@H](NC(=O)[C@H](CCC(N)=O)NC(=O)[C@@H]1CCCN1C(=O)[C@H](CCCNC(=N)N)NC(=O)[C@@H](NC(=O)[C@@H]1CCCN1C(=O)[C@@H](N)Cc1ccccc1)C(C)C)C(C)C)C(=O)O` to `CC[C@H](C)[C@H](NC(=O)[C@H](CCCNC(=N)N)NC(=O)[C@H](CCCCN)NC(=O)[C@H](CCCNC(=N)N)NC(=O)[C@@H](NC(=O)[C@H](CC(N)=O)NC(=O)[C@H](CC(N)=O)NC(=O)[C@H](CC(N)=O)NC(=O)[C@@H]1CCCN1C(=O)[C@@H](N)CCCNC(=N)N)[C@@H](C)O)C(=O)O`, the IC50 rises from 6.76 µM to 20.9 µM (3.1-fold). The first is the more potent here.

Going from `CC(C)C[C@H](NC(=O)[C@@H](NC(=O)[C@H](CCCNC(=N)N)NC(=O)[C@@H]1CCCN1C(=O)[C@@H](N)CO)[C@@H](C)O)C(=O)N[C@@H](CC(N)=O)C(=O)N[C@@H](C)C(=O)N[C@@H](Cc1c[nH]c2ccccc12)C(=O)N[C@H](C(=O)O)C(C)C` to `CC[C@H](C)[C@H](NC(=O)CNC(=O)[C@@H]1CCCN1C(=O)CNC(=O)[C@@H]1CCCN1C(=O)[C@@H](N)[C@@H](C)O)C(=O)N[C@@H](CCCNC(=N)N)C(=O)N[C@@H](Cc1ccccc1)C(=O)N1CCC[C@H]1C(=O)N[C@@H](CC(C)C)C(=O)O`, the IC50 falls from 15.1 µM to 2.51 µM (6-fold).

`CC[C@H](C)[C@H](NC(=O)CNC(=O)[C@@H]1CCCN1C(=O)CNC(=O)[C@@H]1CCCN1C(=O)[C@@H](N)[C@@H](C)O)C(=O)N[C@@H](CCCNC(=N)N)C(=O)N[C@@H](Cc1ccc(O)cc1)C(=O)N1CCC[C@H]1C(=O)N[C@H](C(=O)O)C(C)C` and `CC(C)C[C@H](NC(=O)[C@@H]1CCCN1C(=O)[C@H](Cc1ccccc1)NC(=O)[C@H](CCCNC(=N)N)NC(=O)[C@@H]1CCCN1C(=O)CNC(=O)[C@@H]1CCCN1C(=O)CNC(=O)[C@@H]1CCCN1C(=O)[C@@H](N)[C@@H](C)O)C(=O)O` are within 1.5-fold of each other in IC50: 5.5 µM for the first, 4.57 µM for the second.

Going from `CC(C)C[C@H](NC(=O)[C@@H]1CCCN1C(=O)[C@H](Cc1ccccc1)NC(=O)[C@H](CCCNC(=N)N)NC(=O)[C@@H](NC(=O)CNC(=O)[C@@H]1CCCN1C(=O)CNC(=O)[C@@H]1CCCN1C(=O)[C@@H](N)[C@@H](C)O)[C@@H](C)O)C(=O)O` to `CC(C)C[C@H](NC(=O)[C@@H]1CCCN1C(=O)[C@H](Cc1ccc(O)cc1)NC(=O)[C@H](CCCNC(=N)N)NC(=O)[C@@H](NC(=O)CNC(=O)[C@@H]1CCCN1C(=O)CNC(=O)[C@@H]1CCCN1C(=O)[C@@H](N)[C@@H](C)O)C(C)C)C(=O)O`, the IC50 rises from 2.88 µM to 4.37 µM (1.5-fold).

Going from `CSCC[C@H](NC(=O)[C@@H]1CCCN1C(=O)[C@@H](N)CCCNC(=N)N)C(=O)N[C@H](C(=O)N[C@@H](Cc1ccc(O)cc1)C(=O)N[C@@H](CCCCN)C(=O)N[C@@H](C)C(=O)N[C@@H](C)C(=O)N[C@@H](CC(C)C)C(=O)O)[C@@H](C)O` [RPMTYKAAL] to FPARPQVPL, the IC50 falls from 11 µM to 4.57 µM (2.4-fold).

Compared with FPIRPQVPL, FSVRPQVPL is 17-fold higher in IC50: 4.17 µM for the first, 70.8 µM for the second. The first is the more potent here.

Compared with IPGPGRHPL, PPRTLNAWV is 5.1-fold higher in IC50: 3.24 µM for the first, 16.6 µM for the second. The first is the more potent here.

RPITYKAAL [RPITYKAAL] and RPMTCKGAL [RPMTCKGAL] are within 1.5-fold of each other in IC50: 7.41 µM for the first, 5.5 µM for the second.

RPMTRKAAL [RPMTRKAAL] and RPMTWKAAL [RPMTWKAAL] are within 1.5-fold of each other in IC50: 6.61 µM for the first, 7.24 µM for the second.

RPMTWKGAL [RPMTWKGAL] and RPMTYKGAL [RPMTYKGAL] are within 1.5-fold of each other in IC50: 7.08 µM for the first, 7.76 µM for the second.

First: RPNNDTRKSI
Second: RPNNNTGKRI
The IC50 of the first is 3.2-fold lower: 7.08 µM for the first, 22.9 µM for the second. The first is the more potent here.

Going from RPNNNTRKCI to RPNNNTRKSI, the IC50 falls from 42.7 µM to 3.63 µM (12-fold).

First: RPNNNTRKSL
Second: RPNNNTRKST
The IC50 of the first is 2.2-fold lower: 4.9 µM for the first, 11 µM for the second.

RPNNNTRRSI and RPNNSTRKSI are within 1.5-fold of each other in IC50: 9.77 µM for the first, 7.41 µM for the second.

Going from RPSNNTRKRI to RPTNNTRKSI, the IC50 falls from 14.8 µM to 5.62 µM (2.6-fold). The second is the more potent here.

Compared with RSNNNTRKSI, SPRALNAWV is 1.8-fold lower in IC50: 21.4 µM for the first, 11.7 µM for the second.

Going from SPRPLNAWV to SPRTLDAWV, the IC50 rises from 15.1 µM to 24 µM (1.6-fold). The first is the more potent here.

First: SPRTLSAWV
Second: SPVRPQVPL
The IC50 of the first is 260-fold higher: 1200 µM for the first, 4.68 µM for the second.

Going from TKGPGIRFPL to TPGPGIRFPI, the IC50 falls from 257 µM to 5.89 µM (44-fold). The second is the more potent here.

Compared with TPGPGIRYPL, TPGPGIRYPM is 1.9-fold lower in IC50: 6.03 µM for the first, 3.16 µM for the second.

Going from TPGPGPRYPL to TPGPGPRYPM, the IC50 falls from 5.89 µM to 3.72 µM (1.6-fold).

Going from TPGPGPRYPV to TPGPGTRYPL, the IC50 falls from 6.61 µM to 3.72 µM (1.8-fold). The second is the more potent here.

TSGPGTRFPL was tested, and the IC50 was 70.8 µM.

What follows are molecules tested on autologous PBMC of subject 8 (assay: Memory). Settings: early cART / following cART (8.3–10.1 yr).
Assay type: cell-based, human

For `CSCC[C@H](NC(=O)[C@@H]1CCCN1)C(=O)N[C@@H](CS)C(=O)N[C@@H](Cc1ccccc1)C(=O)NCC(=O)N[C@@H](Cc1c[nH]c2ccccc12)C(=O)N[C@@H](CS)C(=O)N[C@@H](Cc1ccccc1)C(=O)N[C@@H](CCCCN)C(=O)N[C@@H](CC(C)C)C(=O)O` (H-PMCFGWCFKL-OH; N-terminus and C-terminus assumed), the “memory T cell response (IFN-γ ELISPOT), in words” value (“memory T cell response” for short) was “recovered during therapy”.

Same assay, conditions: late cART (>12.4 yr)

In the case of `CSCC[C@H](NC(=O)[C@@H]1CCCN1)C(=O)N[C@@H](CS)C(=O)N[C@@H](Cc1ccccc1)C(=O)NCC(=O)N[C@@H](Cc1c[nH]c2ccccc12)C(=O)N[C@@H](CS)C(=O)N[C@@H](Cc1ccccc1)C(=O)N[C@@H](CCCCN)C(=O)N[C@@H](CC(C)C)C(=O)O` (H-PMCFGWCFKL-OH; N-terminus and C-terminus assumed), the “memory T cell response” value is reported as “eventual loss”.

Same assay, conditions: over the course of infection, time points as worded

For `CC(C)C[C@H](NC(=O)[C@H](CCCCN)NC(=O)[C@H](Cc1ccccc1)NC(=O)[C@H](CS)NC(=O)[C@H](Cc1c[nH]c2ccccc12)NC(=O)CNC(=O)[C@H](Cc1ccccc1)NC(=O)[C@H](CS)NC(=O)[C@H](CC(C)C)NC(=O)[C@@H]1CCCN1)C(=O)O` (H-PLCFGWCFKL-OH; N-terminus and C-terminus assumed), the “memory T cell response” value was “no-to-low memory responses”.
For `CSCC[C@H](NC(=O)[C@@H]1CCCN1)C(=O)N[C@@H](CS)C(=O)N[C@@H](Cc1ccccc1)C(=O)NCC(=O)N[C@@H](Cc1c[nH]c2ccccc12)C(=O)N[C@@H](CS)C(=O)N[C@@H](Cc1ccccc1)C(=O)N[C@@H](CCCCN)C(=O)N[C@@H](CC(C)C)C(=O)O` (H-PMCFGWCFKL-OH; N-terminus and C-terminus assumed), the “memory T cell response” value was “no-to-low memory responses”.
